Experimental data published in US8278359B2, “Compositions containing amines and use thereof to treat acne or reduce the appearance of oil or pores on the skin” (Johnson & Johnson Consumer Companies, Inc., priority 2005, dated 2012).
Like-named read-outs stand apart in the source and are kept apart here.

Assays:
[1] = test system: TNF (tissue necrosis factor-alpha); assay: PHA-stimulated peripheral blood lymphocyte cytokine release: TNF; format: cell-based; conditions: Homo sapiens, read-out: TNF % inh.
Excerpt: (§1) The ability of various amines to affect the inflammatory responses was illustrated by its ability to reduce the production of cytokines by human lymphocytes stimulated with the T-cell receptor (TCR) activating agent phytohaemagglutinin (PHA) in the following assay.
(§2) Human leukocytes were collected from a healthy adult […] via leukopheresis, and adjusted to a density Of 1×10^6 cells/mL in serum free lymphocyte growth medium (ExVivo-15, Biowhittaker, Walkersville, Md.). PBLs were stimulated with 10 μg/mL PHA in the presence or absence of test samples following published methods (Hamamoto Y., et al. Exp Dermatol 2:231-235, 1993). The following compounds were evaluated N,N,N′,N′-Tetrakis(2-hydroxypropyl)ethylenediamine (THPED, available from BASF under the tradename “Quadrol” or “Neutrol”), N,N,N,N-Tetramethylethylenediamine (TEMED, available from Pfaltz & Bauer Chemicals (Waterbury, Conn.)), and Diethylenetriamine (available from Sigma-Aldrich) Following a 48 hour incubation at 37° C. with 5% CO2, the supernatant was removed and evaluated for cytokine content using commercially available multiplex cytokine detection kit.

IL-2 (Interleukin-2) = assay: PHA-stimulated peripheral blood lymphocyte cytokine release: IL-2; format: cell-based; conditions: Homo sapiens, read-out: IL-2 % inh.
Excerpt: as §1, §2

IFN (interferon-gamma) = assay: PHA-stimulated peripheral blood lymphocyte cytokine release: IFN; format: cell-based; conditions: Homo sapiens, read-out: IFN % inh.
Excerpt: as §1, §2

[2] = test system: GM-CSF (granulocyte macrophage stimulating factor); assay: PHA-stimulated peripheral blood lymphocyte cytokine release: GM-CSF; format: cell-based; conditions: Homo sapiens, read-out: GMCSF % inh.
Excerpt: as §1, §2

B16 cells = assay: Induction of pigmentation in vitro, DOPA staining; format: cell-based, murine; conditions: 10 ug/ml, 48 hours
Experimental: THPED was tested for its effect on pigmentation, using melanocytes, DOPA staining and computerized image analysis. THPED was obtained from BASF (Florham Park, N.J.). THPED was dissolved in culture medium and pH was adjusted to neutral (pH 7.2). THPED was assayed at concentrations ranging from 0.05-0.01%.
B16 cells (a murine melanoma cell line) were obtained from American Type Culture Collection (Manassas, Va.). Cells were cultured in Dulbecco's Modified Eagle Medium (DMEM) containing 10% fetal bovine serum (FBS), 4.5 mg/ml glucose, 2 mM L-glutamine, sodium pyruvate, without phenol red (Invitrogen, Carlsbad, Calif.). B16 cells were plated on 12 well tissue culture plates (Corning Costar, San Diego, Calif.), at 40,000 cells per well in the above culture media. Cells were allowed to grow overnight and then treated with various concentrations of THPED at pH 7.2 for total 48 hours. Fresh media containing the experimental treatments were changed once daily.
At the end of the treatment, the cells were washed for 5 minutes, twice, in phosphate-buffered saline (PBS, from Life Technologies, Gaithersburg, Md.), then briefly fixed in 10% buffered formalin (from Sigma St. Louis, Mo.) for 10 minutes, washed three times with PBS and stained with 0.1% L-3,4-Dihydroxyphenylalanine (DOPA, from Sigma, St. Louis, Mo.) in PBS for 2-3 hours at 37° C., followed by three PBS washes. DOPA is a substrate for tyrosinase; therefore an increase in staining represents increased tyrosinase activity and pigment production. Images of DOPA-stained cells were taken using a Leica DMIL microscope (Bannockburn, Ill.) and an OPTRONICS DEI-750 digital camera (Goleta, Calif.). All images were obtained and analyzed with Image Pro Plus 4.0 software (Media Cybernetics, Silver Spring, Md.).
The pigment change was evaluated using the scale defined in Table XII.

tyrosinase [3] = assay: Tyrosinase activity in lysates of treated B16 cells (DOPA, absorbance 490 nm); format: cell-based, murine; conditions: 10 μg/ml; B16 cells 48 hours; activity at 3-hours, normalized for total protein
Experimental: THPED was also tested for its ability to induce tyrosinase activity in B16 cells by spectroscopic measuring of the final product, melanin. B16 cells were treated with THPED at different concentrations at pH 7.2 for 48 hours and cells were then lysed in 250 μl of PBS containing 1% Triton X-100 (Sigma, St. Louis, Mo.). The lysates were collected and centrifuged at 14,000 rpm for 5 minutes at 4° C. to pellet any insoluble material. Lysates (100 μl) were transferred to a 96 well assay plate (Corning Costar, San Diego, Calif.) and mixed with 100 μl of 0.1% (w/v) DOPA in PBS. The absorbance at 490 nm was then monitored from 0 to 12 hours using a VersaMax Plate Spectrophotometer (Molecular Devices, Sunnyvale, Calif.) and SoftMax Pro analytical software (Molecular Devices, Sunnyvale, Calif.). The tyrosinase activities were normalized for total protein using the BioRad Dc Protein Assay (Bio Rad, Hercules, Calif.).

tyrosinase [4] = assay: Tyrosinase protein levels in B16 cells (Western blot, normalized to β-Actin); format: cell-based, murine; conditions: 20 μg/ml, PBS treated control = 1
Experimental: THPED was also tested for its ability to induce tyrosinase protein levels in B16 cells. B16 cells were treated with THPED at different concentrations at pH 7.2 for 48 hours and cells were then lysed in 250 μl of PBS containing 1% Triton X-100. B16 cell lysates containing 3.7 μg of protein (for tyrosinase protein analysis) and 1.2 μg of protein (for β-Actin protein analysis) were electrophoresed on 4-20% Tris-Glycine SDS PAGE minigels (Invitrogen, Carlsbad, Calif.), transferred onto PVDF membrane (Bio Rad, Hercules, Calif.), and probed with antibodies for Tyrosinase (1:200 in PBS+0.2% Tween 20+5% BSA, obtained from Santa Cruz Biotechnology, Inc., Santa Cruz, Calif.) and β-Actin (1:2000 in PBS+0.2% Tween 20+5% BSA, obtained from Sigma, St. Louis, Mo.). Protein expression of tyrosinase and β-Actin were analyzed using ECL reagent and Hyperfilm ECL obtained from Amersham (Piscataway, N.J.). The film was developed using a Konica SRX-101A Processor (East Orange, N.J.).
Tyrosinase protein level in untreated B16 cells was normalized to 1.

[5] = 10 μg/ml, 10 μg/mL PHA, 48 hour incubation
[6] = 100 μg/ml, 10 μg/mL PHA, 48 hour incubation

Row | SMILES | inhibition at 10 µg/mL [1, 5] | inhibition at 100 µg/mL [1, 6] | inhibition at 10 µg/mL (IL-2 (Interleukin-2); [5]) | inhibition at 100 µg/mL (IL-2 (Interleukin-2); [6]) | inhibition at 10 µg/mL (IFN (interferon-gamma); [5]) | inhibition at 100 µg/mL (IFN (interferon-gamma); [6]) | inhibition at 10 µg/mL [2, 5] | inhibition at 100 µg/mL [2, 6] | inhibition at 10 µg/mL ([1]; 48 h) | inhibition at 100 µg/mL ([1]; 48 h) | inhibition at 10 µg/mL (IL-2 (Interleukin-2); 48 h) | inhibition at 100 µg/mL (IL-2 (Interleukin-2); 48 h) | inhibition at 10 µg/mL (IFN (interferon-gamma); 48 h) | inhibition at 100 µg/mL (IFN (interferon-gamma); 48 h) | inhibition at 10 µg/mL ([2]; 48 h) | inhibition at 100 µg/mL ([2]; 48 h) | Pigmentation score (B16 cells) | % tyrosinase activity relative to untreated control (tyrosinase [3]) | Relative increase in tyrosinase protein (tyrosinase [4])
1 | CC(C)NCCN(CCNC(C)C)CCNC(C)C [Tris[2-(isopropylamino)ethyl]amine, reference compound] | -10.7% | -15.3% | -7.7% | 2.3% | 20.3% | 12.5% | -26.4% | -52.8% |  |  |  |  |  |  |  |  |  |  | 
2 | OCCN(CCO)CCN(CCO)CCO [THEED, N, N, N′, N′-Tetrakis(2-hydroxyethyl)ethylene diamine] |  |  |  |  |  |  |  |  | 35.8% | 44.5% | 27.7% | 61.8% | 23.7% | 49.5% | 16.6% | 23% |  |  | 
3 | NCCNCCN [Diethylenetriamine] | 9.9% | 3.3% | 4.7% | -19.5% | -1.2% | -35% | 36.6% | 51.7% |  |  |  |  |  |  |  |  |  |  | 
4 | C=C[C@@]1(C)CC(=O)[C@]2(O)[C@@]3(C)[C@@H](O)CCC(C)(C)[C@@H]3[C@H](O)[C@H](OC(C)=O)[C@@]2(C)O1 [Forskolin, forskolin, reference compound] |  |  |  |  |  |  |  |  |  |  |  |  |  |  |  |  | 3 | 202.35% | 34 fold
5 | CN(C)CCN(C)C [TEMED, N, N, N′, N′-tetramethylethylene diamine] |  |  |  |  |  |  |  |  | 33.6% | 41.8% | 6.6% | 42.9% | 36.9% | 58.6% | 47.4% | 53.1% |  |  | 
